Data on eight molecules can be found in patent US4946951A, “2'-deoxy-5-fluorouridine derivatives” (Taiho Pharmaceutical Co., Ltd., priority 1987, dated 1990).

The subject of data set [1] is Sarcoma-180. Kind of data set: antitumor activity against subcutaneous Sarcoma-180 in mice, oral administration (Pharmacological Test I). The data set is classed as in vivo, male mice of ICR/JCL strain. Conditions: for ED50: Mus musculus, Sarcoma-180, 240 h, once a day for 7 consecutive days, tumor weight on 10th day, read-out: ED50 (effective dose for achieving 50% cancer inhibition). The method, then: (§1) Tissues of Sarcoma-180 were subcutaneously transplanted into the back of male mice of ICR/JCL strain (weighing 27 to 30 g) in an amount of 5×10^6 cells each. The test compound was administered in the form of a weakly acidic aqueous solution. The solution was orally given to each mouse (7 mice in each group) in a dose of 1.0 ml/100 g body weight once a day for 7 consecutive days starting 24 hours after the transplantation, and a weakly acidic aqueous solution containing no test compound was orally administered to the control group in an amount of 1.0 ml/100 g body weight once a day for 7 consecutive days starting 24 hours after the transplantation.
(§2) The tumor was removed from the body on the 10the day after the transplantation and weighed to calculate the average weight of the tumors in the group to which the test compound-containing solution was given and the corresponding weight in the control group. The effective dose (ED50) for achieving 50% cancer inhibition was determined from the dose-response curve. The dose of 50% inhibition of body weight gain (IB50) was determined from the dose-body weight change curve. The therapeutic index (T.I. =IB50/ ED50) was determined with the results shown below in Table 6.

Data set [2] can be described thus: inhibition of body weight gain in Sarcoma-180 bearing mice, oral administration (Pharmacological Test I). The data set is classed as in vivo, male mice of ICR/JCL strain. Conditions: once a day for 7 consecutive days. The method, then: as §1, §2
Data set [3] deals with Sarcoma-180. The data set can be described thus: antitumor activity against subcutaneous Sarcoma-180 in mice, tail vein administration (Pharmacological Test II). Type of data set: in vivo, ICR mice. The note with it: Mus musculus, Sarcoma-180, iv, 240 h, once a day for 7 consecutive days, tumor weight on 10th day, read-out: ED50 (50% tumor inhibition dose, T/C = 0.5). On the procedure: Sarcoma-180 subcultured in ascites of ICR mice was diluted with a physiological saline and subcutaneously transplanted into the backs of ICR mice in an amount of 2×10^7 cells each. Twenty-four hours after the transplantation, a test compound dissolved in sterilized physiological saline was administered to the tail vein of each of the mice once a day for 7 consecutive days. The solid tumor was isolated from under the dorsal skin of mice on the 10th day after the transplantation to measure the weight of the tumor. There was determined the ratio (T/C) of the weight of tumor (T) of the test compound group to the weight of tumor (C) of the control group. The 50% tumor inhibition dose (ED50 value) in which T/C is 0.5 was determined from the dose response curve of dosage and the ratio (T/C).

Setting [4] is: compared with O^3' -p-chlorobenzyl-2'-deoxy-5-fluorouridine.

With `NCC(=O)OC[C@H]1O[C@@H](n2cc(F)c(=O)[nH]c2=O)C[C@@H]1OCc1ccc(Cl)cc1` [Compound 12], in data set [1], the “T.I. (therapeutic index = IB50/ED50)” value is 4.80 and the ED50 turned out to be 0.75 mg/kg. In addition, in data set [1] (setting [4]), the “anti-cancer effect in words” value is reported as “superior in anti-cancer effect”, the efficacy in words entry is “higher in efficacy” and the “therapeutic index in words” value is recorded as “greater in therapeutic index”. Moreover, in data set [2], the “IB50 (dose of 50% inhibition of body weight gain)” value is listed as 3.60 mg/kg/day. In the case of `CC(C)[C@H](N)C(=O)OC[C@H]1O[C@@H](n2cc(F)c(=O)[nH]c2=O)C[C@@H]1OCc1ccc(Cl)cc1` [Compound 13], the ED50 in data set [3] was determined as 1.5 mg/kg. Still for that read-out and setting: with `CC(C)C[C@H](N)C(=O)OC[C@H]1O[C@@H](n2cc(F)c(=O)[nH]c2=O)C[C@@H]1OCc1ccc(Cl)cc1` [Compound 14] the figure was 1.5 mg/kg. On the same count and under the same terms, then `NCC(=O)OC[C@H]1O[C@@H](n2cc(F)c(=O)[nH]c2=O)C[C@@H]1OCc1ccc(Cl)cc1Cl` [Compound 19], with 0.8 mg/kg.

Consider `C[C@H](N)C(=O)OC[C@H]1O[C@@H](n2cc(F)c(=O)[nH]c2=O)C[C@@H]1OCc1ccc(Cl)cc1` [Compound 22], for which the ED50 in data set [3] was 1 mg/kg. Consider `NCC(=O)OC[C@H]1O[C@@H](n2cc(F)c(=O)[nH]c2=O)C[C@@H]1OCc1ccc(Cl)cc1` [Compound 28], for which the ED50 in data set [3] worked out at 1 mg/kg. The same measure, in the same setting: then `Cl.NCC(=O)OC[C@H]1O[C@@H](n2cc(F)c(=O)[nH]c2=O)C[C@@H]1OCc1ccc(Cl)cc1` [Example 8 (E), 3'-O-(4-chlorobenzyl)-2'-deoxy-5-fluoro-5'-O-glycyluridine hydrochloride], with 1 mg/kg.

Consider `O=c1[nH]c(=O)n([C@H]2C[C@H](OCc3ccc(Cl)cc3)[C@@H](CO)O2)cc1F` [O^3' -p-chlorobenzyl-2'-deoxy-5-fluorouridine, reference compound], for which, in data set [1], the “T.I. (therapeutic index = IB50/ED50)” value is 1.64 and the ED50 was 0.94 mg/kg. Moreover, in data set [2], the “IB50 (dose of 50% inhibition of body weight gain)” value stood at 1.54 mg/kg/day.
